Values quoted from earlier work in patent US9902985B2 (priority 2012, dated 2018).
Like-named read-outs stand apart in the source and are kept apart here.

Key:
Gram-positive organisms = conditions: fold more potent than vancomycin

Q: What does the source list for `C=C(C/C=C(\C)CCC=C(C)C)CCC(C)(C)/C=C/CC/C(C)=C/CO[C@@H](COP(=O)(O)O[C@H]1O[C@H](C(N)=O)[C@@](C)(O)[C@H](OC(N)=O)[C@H]1O[C@@H]1O[C@H](CO[C@@H]2O[C@H](CO)[C@@H](O)[C@H](O)[C@H]2O)[C@@H](O[C@@H]2O[C@H](C)[C@@H](O[C@@H]3O[C@H](C(=O)NC4=C(O)CCC4=O)[C@H](O)[C@H](O)[C@H]3O)[C@H](O)[C@H]2NC(C)=O)[C@H](O)[C@H]1NC(C)=O)C(=O)O` [Moenomycin A]?
A: absorption upon oral administration: relatively poor; potency relative to vancomycin (Gram-positive organisms): a thousand times more potent; potency relative to vancomycin (Gram-positive organisms; listed as moenomycin): 10-1000 times
